The results in this text go back to patent US7470684B2, “Spiropiperidine derivatives as NK3 antagonists” (Hoffmann-La Roche Inc., priority 2007, dated 2008).

The structures appear in SMILES notation. Counter-ions that a name gives are not always drawn.

One assay has as its target T1, human NK3 receptor (Homo sapiens, UniProt P29371).
T1 construct: expressed in transfected cells; host or cells: HEK293 cells, transiently transfected; membranes
T1 sequence (P29371 1-465): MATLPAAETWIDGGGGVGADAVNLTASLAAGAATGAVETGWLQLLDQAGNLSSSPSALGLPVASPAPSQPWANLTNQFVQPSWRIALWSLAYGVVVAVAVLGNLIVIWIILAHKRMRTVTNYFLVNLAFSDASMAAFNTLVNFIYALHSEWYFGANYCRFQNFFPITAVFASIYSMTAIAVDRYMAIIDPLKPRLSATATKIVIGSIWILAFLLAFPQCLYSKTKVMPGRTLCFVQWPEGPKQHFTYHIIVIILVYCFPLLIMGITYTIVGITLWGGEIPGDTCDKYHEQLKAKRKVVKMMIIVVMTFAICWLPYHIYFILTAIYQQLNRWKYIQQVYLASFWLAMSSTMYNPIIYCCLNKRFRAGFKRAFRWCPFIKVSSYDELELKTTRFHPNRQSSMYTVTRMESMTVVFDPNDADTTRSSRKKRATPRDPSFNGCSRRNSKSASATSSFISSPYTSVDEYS
Description: [3H]SR142801 competition binding assay.
Conditions: not given
The method, boiled down: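 Membranes from HEK293 cells transiently expressing human NK3 receptor incubated 75 min at RT with [3H]SR142801 at its KD and compound (0.0003-10 μM) in pH 7.4 Tris/MnCl2 buffer. Filtration and scintillation counting, nonspecific binding with 10 μM SB222200. IC50 from Hill fit, Ki by Cheng-Prusoff, duplicates.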
Regarding `O=C1Nc2ccc(F)cc2C2(CCN(CCCC(C(=O)NCc3ccc(F)cc3)c3ccc(Cl)c(Cl)c3)CC2)O1` (stereo not drawn) [Example 132, 2-(3,4-dichlorophenyl)-N-(4-fluorobenzyl)-5-(6-fluoro-2-oxo-1,2-dihydro-1′H-spiro[3,1-benzoxazine-4,4′-piperidin]-1′-yl)-pentanamide], the inhibition constant (Ki) (commonly a measure of affinity in units of concentration, obtained from inhibition or displacement) is 65.7 nM.

Regarding `CN(Cc1ccc(Cl)cc1)C(=O)[C@H](CCN1CCC2(CC1)OC(=O)N(C)c1ccc(F)cc12)c1ccc(Cl)c(Cl)c1` [Example 147, (2R)-N-(4-chlorobenzyl)-2-(3,4-dichlorophenyl)-4-(6-fluoro-1-methyl-2-oxo-1,2-dihydro-1′H-spiro[3,1-benzoxazine-4,4′-piperidin]-1′-yl)-N-methylbutanamide], the Ki is 1.8 nM.

The assay is the same for the next values; noted with them: [3H]SR142801 displacement, membranes of HEK293 cells transiently expressing recombinant human NK3 receptor; read-out: hNK3 Ki.
Take `O=C1Nc2ccc(F)cc2C2(CCN(CCCC(C(=O)NCc3ccc(C(F)(F)F)cc3)c3ccc(Cl)c(Cl)c3)CC2)O1` (stereo not drawn) [Example 135, 2-(3,4-dichlorophenyl)-5-(6-fluoro-2-oxo-1,2-dihydro-1′H-spiro[3,1-benzoxazine-4,4′-piperidin]-1′-yl)-N-[4-(trifluoromethyl)benzyl]pentanamide]: the Ki stood at 90.3 nM.

Take `CN(Cc1ccc(Cl)cc1)C(=O)[C@@H](CCN1CCC2(CC1)OC(=O)N(C)c1ccc(F)cc12)c1ccc(Cl)c(Cl)c1` [Example 148, (2S)-N-(4-chlorobenzyl)-2-(3,4-dichlorophenyl)-4-(6-fluoro-1-methyl-2-oxo-1,2-dihydro-1′H-spiro[3,1-benzoxazine-4,4′-piperidin]-1′-yl)-N-methylbutanamide]: the Ki was found to be 0.4 nM.

The assay is the same for the next values; noted with them: hNK3 Ki, [3H]SR142801 displacement, membranes of HEK293 cells transiently expressing recombinant human NK3 receptor.
With `O=C1Nc2ccc(F)cc2C2(CCN(CCCC(C(=O)NCc3ccccc3OC(F)(F)F)c3ccc(Cl)c(Cl)c3)CC2)O1` (stereo not drawn) [Example 118, 2-(3,4-dichlorophenyl)-5-(6-fluoro-2-oxo-1,2-dihydro-1′H-spiro[3,1-benzoxazine-4,4′-piperidin]-1′-yl)-N-[2-(trifluoromethoxy)benzyl]pentanamide], the inhibition constant Ki came out at 64.4 nM.

On to `CN(Cc1ccc(Cl)cc1)C(=O)C(CCCN1CCC2(CC1)OC(=O)Nc1ccc(F)cc12)c1ccc(Cl)c(Cl)c1` (stereo not drawn) [Example 120, N-(4-chlorobenzyl)-2-(3,4-dichlorophenyl)-5-(6-fluoro-2-oxo-1,2-dihydro-1′H-spiro[3,1-benzoxazine-4,4′-piperidin]-1′-yl)-N-methylpentanamide], for which the Ki is 46.3 nM.

Take `CN(Cc1ccc(C(F)(F)F)cc1)C(=O)C(CCCN1CCC2(CC1)OC(=O)Nc1ccc(F)cc12)c1ccc(Cl)c(Cl)c1` (stereo not drawn) [Example 121, 2-(3,4-dichlorophenyl)-5-(6-fluoro-2-oxo-1,2-dihydro-1′H-spiro[3,1-benzoxazine-4,4′-piperidin]-1′-yl)-N-methyl-N-[4-(trifluoromethyl)benzyl]pentanamide]: the Ki stood at 64.7 nM.

Consider `O=C1Nc2ccc(F)cc2C2(CCN(CCCC(C(=O)NCc3ccc(Cl)cc3)c3ccc(Cl)c(Cl)c3)CC2)O1` (stereo not drawn) [Example 125, N-(4-chlorobenzyl)-2-(3,4-dichlorophenyl)-5-(6-fluoro-2-oxo-1,2-dihydro-1′H-spiro[3,1-benzoxazine-4,4′-piperidin]-1′-yl)pentanamide], for which the Ki was determined as 98.3 nM.

For the molecule `CN(Cc1cccc(C(F)(F)F)c1)C(=O)C(CCCN1CCC2(CC1)OC(=O)Nc1ccc(F)cc12)c1ccc(Cl)c(Cl)c1` (stereo not drawn) [Example 130, 2-(3,4-dichlorophenyl)-5-(6-fluoro-2-oxo-1,2-dihydro-1′H-spiro[3,1-benzoxazine-4,4′-piperidin]-1′-yl)-N-methyl-N-[3-(trifluoromethyl)benzyl]pentanamide], the Ki came to 91.9 nM.

Take `CN(Cc1ccc(F)cc1)C(=O)C(CCCN1CCC2(CC1)OC(=O)Nc1ccc(F)cc12)c1ccc(Cl)c(Cl)c1` (stereo not drawn) [Example 131, 2-(3,4-dichlorophenyl)-N-(4-fluorobenzyl)-5-(6-fluoro-2-oxo-1,2-dihydro-1′H-spiro[3,1-benzoxazine-4,4′-piperidin]-1′-yl)-N-methylpentanamide]: the Ki is 69.2 nM.

With `Cc1ccc(CN(C)C(=O)C(CCCN2CCC3(CC2)OC(=O)Nc2ccc(F)cc23)c2ccc(Cl)c(Cl)c2)cc1` (stereo not drawn) [Example 138, 2-(3,4-dichlorophenyl)-5-(6-fluoro-2-oxo-1,2-dihydro-1′H-spiro[3,1-benzoxazine-4,4′-piperidin]-1′-yl)-N-methyl-N-(4-methylbenzyl)pentanamide], the Ki is 95.4 nM.

`C[C@H](NC(=O)[C@H](CCN1CCC2(CC1)OC(=O)Nc1ccc(F)cc12)c1ccc(Cl)c(Cl)c1)c1ccccc1` [Example 146, (2R)-2-(3,4-dichlorophenyl)-4-(6-fluoro-2-oxo-1,2-dihydro-1′H-spiro[3,1-benzoxazine-4,4′-piperidin]-1′-yl)-N-[(1S)-1-phenylethyl]butanamidehydrochloride]: the Ki amounted to 5.7 nM.
